Experimental data taken from ChEMBL document CHEMBL5291721, “A preclinical secondary pharmacology resource illuminates target-adverse drug reaction associations of marketed drugs” (Nat Commun, 2023).

How the values were obtained:
[1] = molecular target: T1, Alpha-2B adrenergic receptor (Homo sapiens, UniProt P18089)
T1 sequence (P18089 whole entry): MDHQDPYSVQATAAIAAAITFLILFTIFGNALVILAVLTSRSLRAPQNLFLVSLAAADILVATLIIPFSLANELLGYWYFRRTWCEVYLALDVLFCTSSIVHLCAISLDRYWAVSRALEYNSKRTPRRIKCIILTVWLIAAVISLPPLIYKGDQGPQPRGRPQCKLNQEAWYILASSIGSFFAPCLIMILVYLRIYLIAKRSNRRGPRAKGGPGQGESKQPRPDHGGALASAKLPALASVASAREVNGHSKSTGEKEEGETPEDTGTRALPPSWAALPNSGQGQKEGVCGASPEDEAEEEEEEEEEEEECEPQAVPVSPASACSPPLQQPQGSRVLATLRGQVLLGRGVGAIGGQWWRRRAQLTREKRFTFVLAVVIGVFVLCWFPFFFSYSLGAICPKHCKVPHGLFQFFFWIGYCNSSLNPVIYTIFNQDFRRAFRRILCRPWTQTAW

[2] = molecular target: Neuronal acetylcholine receptor subunit alpha-4 (Homo sapiens, UniProt P43681)
Cannabinoid receptor 1 = Cannabinoid receptor 1 (Homo sapiens, UniProt P21554); format: functional, cell-based
Histamine H1 receptor = Histamine H1 receptor (Homo sapiens, UniProt P35367)
[3] = molecular target: 5-hydroxytryptamine receptor 2B (Homo sapiens, UniProt P41595); format: functional, cell-based
[4] = molecular target: T2, 5-hydroxytryptamine receptor 2C (Homo sapiens, UniProt P28335)
T2 sequence (P28335 whole entry): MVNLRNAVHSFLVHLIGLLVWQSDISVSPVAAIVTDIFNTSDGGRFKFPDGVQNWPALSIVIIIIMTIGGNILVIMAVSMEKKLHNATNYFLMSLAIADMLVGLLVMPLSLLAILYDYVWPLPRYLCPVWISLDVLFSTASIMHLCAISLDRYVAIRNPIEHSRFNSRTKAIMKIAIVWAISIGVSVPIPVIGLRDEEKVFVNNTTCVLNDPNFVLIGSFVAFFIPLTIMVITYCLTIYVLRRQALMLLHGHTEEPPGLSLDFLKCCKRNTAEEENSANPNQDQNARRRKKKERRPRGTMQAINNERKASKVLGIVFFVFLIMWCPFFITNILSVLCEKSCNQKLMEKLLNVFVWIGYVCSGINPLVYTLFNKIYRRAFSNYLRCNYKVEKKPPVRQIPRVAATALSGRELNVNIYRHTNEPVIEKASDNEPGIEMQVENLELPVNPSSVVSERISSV

Melanocortin receptor 3 = Melanocortin receptor 3 (Homo sapiens, UniProt P41968)
Motilin receptor = Motilin receptor (Homo sapiens, UniProt O43193)
[5] = molecular target: Kappa-type opioid receptor (Homo sapiens, UniProt P41145)
Progesterone receptor = molecular target: T3, Progesterone receptor (Homo sapiens, UniProt P06401); format: functional
T3 sequence (P06401 whole entry): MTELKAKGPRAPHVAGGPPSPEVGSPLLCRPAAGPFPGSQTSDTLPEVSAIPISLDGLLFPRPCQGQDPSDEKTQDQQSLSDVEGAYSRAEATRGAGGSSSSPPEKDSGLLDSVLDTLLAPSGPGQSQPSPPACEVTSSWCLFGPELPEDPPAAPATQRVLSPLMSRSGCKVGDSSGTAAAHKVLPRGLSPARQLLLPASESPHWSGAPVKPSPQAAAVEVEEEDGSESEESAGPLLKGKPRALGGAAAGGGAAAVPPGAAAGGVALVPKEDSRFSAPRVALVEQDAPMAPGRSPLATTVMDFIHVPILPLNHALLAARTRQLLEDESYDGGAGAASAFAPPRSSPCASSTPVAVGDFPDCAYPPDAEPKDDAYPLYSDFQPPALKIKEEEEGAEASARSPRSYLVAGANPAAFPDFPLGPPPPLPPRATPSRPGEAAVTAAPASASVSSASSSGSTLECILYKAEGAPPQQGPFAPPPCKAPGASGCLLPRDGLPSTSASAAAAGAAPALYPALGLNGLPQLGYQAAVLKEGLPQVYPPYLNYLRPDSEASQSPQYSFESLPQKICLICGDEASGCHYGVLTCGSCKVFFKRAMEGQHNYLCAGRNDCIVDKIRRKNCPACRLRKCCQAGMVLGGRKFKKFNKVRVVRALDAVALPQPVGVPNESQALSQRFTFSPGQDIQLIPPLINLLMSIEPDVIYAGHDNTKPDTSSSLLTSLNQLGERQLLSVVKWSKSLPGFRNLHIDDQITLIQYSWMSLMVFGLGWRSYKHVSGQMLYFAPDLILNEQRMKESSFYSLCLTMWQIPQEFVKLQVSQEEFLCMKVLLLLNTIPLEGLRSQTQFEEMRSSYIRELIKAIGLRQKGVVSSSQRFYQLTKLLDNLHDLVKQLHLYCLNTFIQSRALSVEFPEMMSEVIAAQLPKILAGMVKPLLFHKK
Further: assay procedure not described here.

5-hydroxytryptamine receptor 2B, sequence (P41595 whole entry): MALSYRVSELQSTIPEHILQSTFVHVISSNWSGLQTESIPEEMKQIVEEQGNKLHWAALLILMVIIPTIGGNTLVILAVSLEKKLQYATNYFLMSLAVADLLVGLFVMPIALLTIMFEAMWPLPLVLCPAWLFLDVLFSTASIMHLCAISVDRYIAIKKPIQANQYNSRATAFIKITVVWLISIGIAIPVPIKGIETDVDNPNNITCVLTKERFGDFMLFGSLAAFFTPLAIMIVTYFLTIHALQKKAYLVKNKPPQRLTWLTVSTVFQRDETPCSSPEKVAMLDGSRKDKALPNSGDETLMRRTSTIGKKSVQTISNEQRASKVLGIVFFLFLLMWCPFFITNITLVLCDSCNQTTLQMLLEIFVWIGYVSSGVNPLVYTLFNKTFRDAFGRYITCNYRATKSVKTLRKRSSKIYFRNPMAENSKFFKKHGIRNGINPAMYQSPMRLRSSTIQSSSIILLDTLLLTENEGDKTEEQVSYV
Melanocortin receptor 3, sequence (P41968 whole entry): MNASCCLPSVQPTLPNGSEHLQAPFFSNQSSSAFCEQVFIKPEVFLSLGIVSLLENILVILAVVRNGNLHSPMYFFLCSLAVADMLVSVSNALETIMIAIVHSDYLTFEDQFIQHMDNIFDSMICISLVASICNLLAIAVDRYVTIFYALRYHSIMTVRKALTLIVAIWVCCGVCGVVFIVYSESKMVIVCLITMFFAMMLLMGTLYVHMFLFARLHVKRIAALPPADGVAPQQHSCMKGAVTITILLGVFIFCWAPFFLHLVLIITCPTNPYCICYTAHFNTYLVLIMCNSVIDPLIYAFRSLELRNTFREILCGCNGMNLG
Cannabinoid receptor 1, sequence (P21554 whole entry): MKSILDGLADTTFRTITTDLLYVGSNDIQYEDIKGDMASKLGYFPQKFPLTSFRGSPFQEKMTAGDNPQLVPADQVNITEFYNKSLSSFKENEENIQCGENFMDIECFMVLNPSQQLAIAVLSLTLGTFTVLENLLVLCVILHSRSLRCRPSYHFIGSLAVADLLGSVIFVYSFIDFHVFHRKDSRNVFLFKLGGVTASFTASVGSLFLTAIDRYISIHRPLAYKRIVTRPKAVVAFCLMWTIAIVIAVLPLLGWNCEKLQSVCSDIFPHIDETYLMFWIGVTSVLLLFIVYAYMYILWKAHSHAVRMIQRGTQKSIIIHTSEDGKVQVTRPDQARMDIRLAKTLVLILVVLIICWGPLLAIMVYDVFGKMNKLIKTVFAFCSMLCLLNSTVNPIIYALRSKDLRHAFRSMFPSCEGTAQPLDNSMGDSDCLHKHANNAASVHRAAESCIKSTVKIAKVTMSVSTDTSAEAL
Neuronal acetylcholine receptor subunit alpha-4, sequence (P43681 whole entry): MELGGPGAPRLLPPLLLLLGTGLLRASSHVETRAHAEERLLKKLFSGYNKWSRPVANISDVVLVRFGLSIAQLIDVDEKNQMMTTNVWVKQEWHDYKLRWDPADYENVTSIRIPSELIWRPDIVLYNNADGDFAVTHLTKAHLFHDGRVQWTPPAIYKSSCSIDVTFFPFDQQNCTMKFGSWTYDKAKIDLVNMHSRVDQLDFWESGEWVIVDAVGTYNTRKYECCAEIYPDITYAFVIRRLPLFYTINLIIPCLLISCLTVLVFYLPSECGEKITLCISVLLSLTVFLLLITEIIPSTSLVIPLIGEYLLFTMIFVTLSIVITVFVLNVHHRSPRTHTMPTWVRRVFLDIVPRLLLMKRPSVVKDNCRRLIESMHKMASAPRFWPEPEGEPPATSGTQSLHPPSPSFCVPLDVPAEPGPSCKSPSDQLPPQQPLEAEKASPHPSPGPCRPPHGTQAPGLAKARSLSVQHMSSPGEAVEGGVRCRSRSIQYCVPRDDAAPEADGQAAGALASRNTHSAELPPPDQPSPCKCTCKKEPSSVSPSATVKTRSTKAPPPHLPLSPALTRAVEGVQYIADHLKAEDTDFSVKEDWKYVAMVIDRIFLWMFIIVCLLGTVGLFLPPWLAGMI
Kappa-type opioid receptor, sequence (P41145 whole entry): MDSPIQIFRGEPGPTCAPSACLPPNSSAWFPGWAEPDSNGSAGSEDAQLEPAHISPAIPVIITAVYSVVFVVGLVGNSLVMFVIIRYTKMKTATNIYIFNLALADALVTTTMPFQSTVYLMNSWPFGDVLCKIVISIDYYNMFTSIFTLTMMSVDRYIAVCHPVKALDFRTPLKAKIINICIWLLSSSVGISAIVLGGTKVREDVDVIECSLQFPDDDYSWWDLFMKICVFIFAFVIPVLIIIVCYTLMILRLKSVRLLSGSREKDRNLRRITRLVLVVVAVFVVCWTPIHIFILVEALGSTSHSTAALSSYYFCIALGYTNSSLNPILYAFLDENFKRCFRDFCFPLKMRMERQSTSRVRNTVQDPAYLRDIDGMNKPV
Motilin receptor, sequence (O43193 whole entry): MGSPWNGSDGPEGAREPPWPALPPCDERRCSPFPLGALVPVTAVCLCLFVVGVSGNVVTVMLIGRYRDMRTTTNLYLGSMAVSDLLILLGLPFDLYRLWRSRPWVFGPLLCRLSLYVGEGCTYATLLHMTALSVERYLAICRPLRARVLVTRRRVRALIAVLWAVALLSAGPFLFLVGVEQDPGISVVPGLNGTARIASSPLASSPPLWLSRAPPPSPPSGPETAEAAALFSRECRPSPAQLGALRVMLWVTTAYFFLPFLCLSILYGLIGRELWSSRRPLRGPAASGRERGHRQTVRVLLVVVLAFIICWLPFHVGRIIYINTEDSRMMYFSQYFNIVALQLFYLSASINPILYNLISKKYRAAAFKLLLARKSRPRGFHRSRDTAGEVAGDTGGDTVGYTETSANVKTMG
Histamine H1 receptor, sequence (P35367 whole entry): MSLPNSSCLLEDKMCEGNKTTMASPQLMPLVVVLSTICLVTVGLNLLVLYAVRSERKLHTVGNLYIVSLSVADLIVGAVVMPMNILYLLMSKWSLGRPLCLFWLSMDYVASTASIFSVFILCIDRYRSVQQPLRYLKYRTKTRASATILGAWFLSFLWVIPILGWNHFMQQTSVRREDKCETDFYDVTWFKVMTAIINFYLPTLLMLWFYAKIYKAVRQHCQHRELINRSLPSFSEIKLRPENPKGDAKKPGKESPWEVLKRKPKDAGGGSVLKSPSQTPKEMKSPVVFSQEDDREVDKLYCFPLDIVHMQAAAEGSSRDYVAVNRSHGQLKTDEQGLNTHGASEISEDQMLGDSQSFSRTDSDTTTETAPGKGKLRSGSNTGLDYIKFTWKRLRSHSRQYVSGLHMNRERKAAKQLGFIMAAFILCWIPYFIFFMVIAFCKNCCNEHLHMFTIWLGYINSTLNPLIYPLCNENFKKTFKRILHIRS

Row | Compound | AC50 [1] [µM] | AC50 [2] [µM] | AC50 (Cannabinoid receptor 1) [µM] | AC50 (Histamine H1 receptor) [µM] | AC50 [3] [µM] | AC50 [4] [µM] | AC50 (Melanocortin receptor 3) [µM] | AC50 (Motilin receptor) [µM] | AC50 [5] [µM] | AC50 (Progesterone receptor) [µM]
1 | C=C[C@@]1(C)CC(=O)[C@]2(O)[C@@]3(C)[C@@H](O)CCC(C)(C)[C@@H]3[C@H](OC(=O)CCN(C)C)[C@H](OC(C)=O)[C@@]2(C)O1 | > 30 | > 30 | > 30 | > 30 | > 30 | > 30 | > 30 | 7.8 | > 30 | > 30
2 | NCCCC(O)(P(=O)(O)O)P(=O)(O)O [ALENDRONIC ACID] | – | > 10 | – | – | – | > 30 | > 30 | > 10 | > 10 | –
3 | Nc1ccc(C(=O)O)c(O)c1 [AMINOSALICYLIC ACID] | – | > 30 | > 30 | – | > 30 | > 30 | > 30 | > 30 | > 30 | > 30
4 | NS(=O)(=O)c1cc2c(cc1C(F)(F)F)NC(Cc1ccccc1)NS2(=O)=O (configuration not stated) [BENDROFLUMETHIAZIDE] | > 10 | > 10 | – | > 10 | > 10 | > 30 | > 10 | > 10 | > 10 | > 10
5 | COc1cc(OC)c(C(=O)CCCN2CCCC2)c(OC)c1 [BUFLOMEDIL] | – | > 30 | > 30 | – | > 30 | > 30 | > 30 | > 30 | 4.3 | > 30
6 | CCCCCCNC(=O)n1cc(F)c(=O)[nH]c1=O [CARMOFUR] | – | > 30 | – | – | > 30 | > 30 | > 30 | > 30 | > 30 | > 30
7 | COCCOC(=O)C1=C(C)NC(C)=C(C(=O)OC/C=C/c2ccccc2)C1c1cccc([N+](=O)[O-])c1 (configuration not stated) [CILNIDIPINE] | > 30 | > 30 | > 30 | > 30 | > 30 | > 30 | > 30 | 24 | > 30 | > 30
8 | CC(C)(C)NCC(O)c1cc(Cl)c(N)c(Cl)c1 (configuration not stated) [CLENBUTEROL] | – | > 30 | > 30 | – | > 30 | > 30 | > 30 | > 30 | 28 | > 30
9 | COc1cccc2c1C(=O)c1c(O)c3c(c(O)c1C2=O)C[C@@](O)(C(C)=O)C[C@@H]3O[C@H]1C[C@H](N)[C@H](O)[C@H](C)O1 [DAUNORUBICIN] | – | 10.8 | – | – | – | 14.1 | 29 | > 30 | > 30 | > 3
10 | N[C@H](Cc1cc(I)c(Oc2cc(I)c(O)c(I)c2)c(I)c1)C(=O)O [DEXTROTHYROXINE] | > 10 | > 10 | > 30 | > 10 | 26 | > 30 | > 30 | > 10 | > 10 | –
11 | C[C@@H]1C[C@H]2[C@@H]3C[C@H](F)C4=CC(=O)C=C[C@]4(C)[C@@]3(F)[C@@H](O)C[C@]2(C)[C@H]1C(=O)CO [DIFLUCORTOLONE] | – | – | – | > 30 | 18 | – | > 30 | – | – | > 0.03
12 | CC1(C)C(/C=C/C=C/C=C/C=C2\N(CCCCS(=O)(=O)O)c3ccc4ccccc4c3C2(C)C)=[N+](CCCCS(=O)(=O)[O-])c2ccc3ccccc3c21 [INDOCYANINE GREEN ACID FORM] | 6.9 | > 30 | 9.3 | 8.3 | – | – | > 30 | 23 | 13 | 3.4
